Values of other authors, collected in US10449245B2 (priority 2014, dated 2019).

Test system: HIV-specific T cells
Conditions: IMiD present during stimulation with dendritic cells presenting Gag- or Nef-specific peptides; cited from earlier work

Nc1cccc2c1C(=O)N(C1CCC(=O)NC1=O)C2=O (centres unmarked) [pomalidomide]
function of T-cells after in vitro stimulation: a number of improvements in the function of the T-cells

Nc1cccc2c1CN(C1CCC(=O)NC1=O)C2=O (centres unmarked) [Lenalidomide]
function of T-cells after in vitro stimulation: a number of improvements in the function of the T-cells
